Test results: patent US20140323757A1, “Biosurfactant Isolated from Yeast” (Gyeongbuk Institute of Marine Bio-industry, priority 2013, published 2014)

Assay: Surface tension measurement
Type: physicochemical
Design: unit not given here
Settings: at 1.5 mg/L
Source text: Surface tension is increased in proportion to molecular interaction, and hydrocarbons or organic polymers show low surface tension due to their weak molecular interaction. Surface tension is represented by N/m. Since surfactants have hydrophobic and hydrophilic groups, when added to water, its surface tension is lowered. […] The compounds represented by […]

Compound | Surface Tension
CCCCCC(=O)OC1C(O)C(O)C(O)C(OC(C)=O)C1OC(=O)CCCCC (centres unmarked) [Compound A57-4-gly-1] | 22.90
CCCCCC(=O)OC1C(O)C(O)C(O)C(OC(=O)CCCCC)C1OC(C)=O (centres unmarked) [Compound A57-4-gly-3] | 28.71
CCCCCC(=O)OC1C(O)C(O)C(O)C(OC(=O)CCCCC)C1OC(=O)CCCCC (centres unmarked) [Compound A57-4-gly-4] | 25.28

Continued, values first:

Surface Tension | Compound
22.40 | CCCCCC(=O)OC1C(O)C(O)C(O)C(O)C1OC(=O)CCCCC (single isomer, unassigned) [Compound A57-4-gly-2]
22.44 | CCCCCC(=O)OC1C(O)C(O)C(O)C(O)C1OC(=O)CCCCC (single isomer, unassigned) [Compound A57-4-gly-5]
